Measured values as given in patent US6589963B2, “Heterocyclic compounds and salts thereof and medicinal use of the same” (Kyoto Pharmaceutical Industries, Ltd., priority 1999, dated 2003).

Assays:
male KK-A^y mice [1] = test: Hypotriglyceridemic action; format: in vivo, mouse; conditions: 4 consecutive days, non-fasting, about 24 hours after final administration, vs control group
Procedure: (§1) The triglyceride level in the plasma was measured using a commercially available assay kit (triglyceride G-test WAKO, Wako Pure Chemical Industries, Ltd.). The mice were grouped (5 mice per group) into a control group and an administration group, such that the mean and the standard deviation of the triglyceride level in the plasma of each group were nearly the same. Each test compound was suspended or dissolved in 5% gum arabic solution and administered orally to the administration group for 4 consecutive days from the next day. The 5% gum arabic solution was orally administered to the control group. Blood was drawn from the tail vein under a non-fasting state about 24 hours after the final administration and the triglyceride level in the plasma was measured. The decrease in the plasma triglyceride level was calculated from the following formula.
Decrease (%) in plasma triglyceride level=[(mean plasma triglyceride level of control group−mean plasma triglyceride level of test compound administration group)/mean plasma triglyceride level of control group]×100

male KK-A^y mice [2] = test: Hypoglycemic action (method A); format: in vivo, mouse; conditions: 4 consecutive days, non-fasting, about 24 hours after final administration, vs control group
Procedure: as §1, with “glucose” for “triglyceride”, “(glucose CII-test” for “(triglyceride G-test”
Decrease (%) in plasma glucose level=[(mean plasma glucose level of control group−mean plasma glucose level of test compound administration group)/mean plasma glucose level of control group]×100

Row | Molecule | Decrease (%) in plasma triglyceride level (male KK-A^y mice [1]; dose 30 mg/kg orally) | Decrease (%) in plasma glucose level (male KK-A^y mice [2]; dose 30 mg/kg orally) | also measured
1 | 7-[2-(5-Methyl-2-phenyloxazol-4-yl)ethoxy]-2-(4-pentenoyl)-1,2,3,4-tetrahydroisoquinoline-(3S)-carboxylic acid [Example 44] | 19.1% | 48.0% | –
2 | Cc1oc(-c2ccccc2)nc1CCOc1ccc2c(c1)CC(C(=O)O)N(Cc1ccccc1)C2 (racemic) [Example 72, 2-Benzyl-6-[2-(5-methyl-2-phenyloxazol-4-yl)ethoxy]-1,2,3,4-tetrahydroisoquinoline-(3RS)-carboxylic acid] | 24.0% | 15.9% | –
3 | CC(=O)N1Cc2cc(OCCc3nc(-c4ccccc4)oc3C)ccc2C[C@H]1C(=O)O [Example 3, 2-Acetyl-7-[2-(5-methyl-2-phenyloxazol-4-yl)ethoxy]-1,2,3,4-tetrahydroisoquinoline-(3S)-carboxylic acid] | – | 11.8% | –
4 | Cc1oc(-c2ccccc2)nc1CCOc1ccc2c(c1)CN(C)[C@H](C(=O)O)C2 [Example 4, 2-Methyl-7-[2-(5-methyl-2-phenyloxazol-4-yl)ethoxy]-1,2,3,4-tetrahydroisoquinoline-(3S)-carboxylic acid] | – | – | Decrease (%) in plasma triglyceride level (male KK-A^y mice [1]; dose 10 mg/kg orally): 14.3%
5 | CCCCCCN1Cc2cc(OCCc3nc(-c4ccccc4)oc3C)ccc2C[C@H]1C(=O)O [Example 6] | – | 12.2% | Decrease (%) in plasma glucose level (male KK-A^y mice [2]; dose 10 mg/kg orally): 10.7%
6 | Cc1oc(-c2ccccc2)nc1CCOc1ccc2c(c1)CN(CC(C)C)[C@H](C(=O)O)C2 [Example 7, 2-Isobutyl-7-[2-(5-methyl-2-phenyloxazol-4-yl)ethoxy]-1,2,3,4-tetrahydroisoquinoline-(3S)-carboxylic acid] | – | 17.4% | Decrease (%) in plasma glucose level (male KK-A^y mice [2]; dose 10 mg/kg orally): 11.4%
7 | Cc1oc(-c2ccccc2)nc1CCOc1ccc2c(c1)CN(CCCc1ccccc1)[C@H](C(=O)O)C2 [Example 9, 7-[2-(5-Methyl-2-phenyloxazol-4-yl)ethoxy]-2-(3-phenylpropyl)-1,2,3,4-tetrahydroisoquinoline-(3S)-carboxylic acid] | – | 20.3% | –
8 | CN(CCOc1ccc2c(c1)CN(Cc1ccccc1)[C@H](C(=O)[O-])C2)c1ccccn1.[Na+] [Example 11, Sodium 2-benzyl-7-[2-(N-methyl-N-(pyridin-2-yl)amino)ethoxy]-1,2,3,4-tetrahydroisoquinoline-(3S)-carboxylate] | – | – | Decrease (%) in plasma triglyceride level (male KK-A^y mice [1]; dose 10 mg/kg orally): 11.2%
9 | CCc1ccc(CCOc2ccc3c(c2)CN(Cc2ccccc2)[C@H](C(=O)[O-])C3)nc1.[Na+] [Example 12, Sodium 2-benzyl-7-[2-(5-ethyl-pyridin-2-yl)ethoxy]1,2,3,4-tetrahydroisoquinoline-(3S)-carboxylate] | – | – | Decrease (%) in plasma triglyceride level (male KK-A^y mice [1]; dose 10 mg/kg orally): 22.9%; Decrease (%) in plasma glucose level (male KK-A^y mice [2]; dose 10 mg/kg orally): 12.0%
10 | Cc1ccc(CN2Cc3cc(OCCc4nc(-c5ccccc5)oc4C)ccc3C[C@H]2C(=O)O)cc1 [Example 18, 2-(4-Methylbenzyl)-7-[2-(5-methyl-2-phenyloxazol-4-yl)ethoxy]-1,2,3,4-tetrahydroisoquinoline-(3S)-carboxylic acid] | 45.5% | 39.7% | –
11 | Cc1oc(C(C)C)nc1CCOc1ccc2c(c1)CN(Cc1ccccc1)[C@H](C(=O)O)C2 [Example 34, 2-Benzyl-7-[2-(5-methyl-2-isopropyloxazol-4-yl)ethoxy]-1,2,3,4-tetrahydroisoquinoline-(3S)-carboxylic acid] | 17.3% | 23.5% | –
12 | CCCCN1Cc2cc(OCCc3nc(-c4ccccc4)oc3C)ccc2C[C@H]1C(=O)O [Example 35, 2-Butyl-7-[2-(5-methyl-2-phenyloxazol-4-yl)ethoxy]-1,2,3,4-tetrahydroisoquinoline-(3S)-carboxylic acid] | 12.4% | 22.1% | –
13 | CC(C)=Cc1nc(CCOc2ccc3c(c2)CN(Cc2ccccc2)[C@H](C(=O)O)C3)c(C)o1 [Example 36, 2-Benzyl-7-{2-[5-methyl-2-(2-methylpropenyl)oxazol-4-yl]ethoxy}-1,2,3,4-tetrahydroisoquinoline-(3S)-carboxylic acid] | 13.7% | 28.4% | –
14 | C=CCN1Cc2cc(OCCc3nc(-c4ccccc4)oc3C)ccc2C[C@H]1C(=O)O [Example 38, 2-Allyl-7-[2-(5-methyl-2-phenyloxazol-4-yl)ethoxy]-1,2,3,4-tetrahydroisoquinoline-(3S)-carboxylic acid] | 30.0% | 28.0% | –
15 | O=C(O)[C@@H]1Cc2ccc(OCCC3CNc4ccccc43)cc2CN1Cc1ccccc1 (stereo partly drawn) [Example 41, 2-Benzyl-7-[(indolin-3-yl)ethoxy]-1,2,3,4-tetrahydroisoquinoline-(3S)-carboxylic acid] | – | 11.1% | –
16 | CC(C)=CC(=O)N1Cc2cc(OCCc3nc(-c4ccccc4)oc3C)ccc2C[C@H]1C(=O)O [Example 45, 2-(3-Methyl-2-butenoyl)-7-[2-(5-methyl-2-phenyloxazol-4-yl)ethoxy]-1,2,3,4-tetrahydroisoquinoline-(3S)-carboxylic acid] | – | 12.6% | –
17 | Cc1oc(-c2ccccc2)nc1CCOc1ccc2c(c1)CN(C(=O)CC(C)(C)C)[C@H](C(=O)O)C2 [Example 46, 2-(3,3-Dimethylbutyryl)-7-[2-(5-methyl-2-phenyloxazol-4-yl)ethoxy]-1,2,3,4-tetrahydroisoquinoline-(3S)-carboxylic acid] | – | 28.6% | –
18 | Cc1oc(-c2ccccc2)nc1CCOc1ccc2c(c1)CN(Cc1ccccn1)[C@H](C(=O)[O-])C2.[Na+] [Example 48, Sodium 7-[2-(5-methyl-2-phenyloxazol-4-yl)ethoxy]-2-(pyridin-2-ylmethyl)-1,2,3,4-tetrahydroisoquinoline-(3S)-carboxylate] | – | 16.1% | –
19 | CC(C)(C)c1nc2cc(COc3ccc4c(c3)CN(Cc3ccccc3)[C@H](C(=O)O)C4)ccc2o1 [Example 53, 2-Benzyl-7-(2-tert-butylbenzoxazol-5-yl)methoxy-1,2,3,4-tetrahydroisoquinoline-(3S)-carboxylic acid] | – | 13.6% | –
20 | CC(C)(C)CN1Cc2cc(OCc3ccc4nc(C(C)(C)C)oc4c3)ccc2C[C@H]1C(=O)O [Example 54, 7-(2-tert-Butylbenzoxazol-6-yl)methoxy-2-(2,2-dimethylpropyl)-1,2,3,4-tetrahydroisoquinoline-(3S)-carboxylic acid] | – | 10.8% | –
21 | CC(C)c1nc2cc(COc3ccc4c(c3)CN(Cc3ccccc3)[C@H](C(=O)O)C4)ccc2o1 [Example 55, 2-Benzyl-7-(2-isopropylbenzoxazol-5-yl)methoxy-1,2,3,4-tetrahydroisoquinoline-(3S)-carboxylic acid] | – | 13.9% | –
22 | Cc1oc(-c2ccccc2)nc1CCOc1ccc2c(c1)CN(Cc1ccncc1)[C@H](C(=O)[O-])C2.[Na+] [Example 56, Sodium 7-[2-(5-methyl-2-phenyloxazol-4-yl)ethoxy]-2-(pyridin-4-ylmethyl)-1,2,3,4-tetrahydroisoquinoline-(3S)-carboxylate] | 14.0% | – | –
23 | Cc1oc(C2CC2)nc1CCOc1ccc2c(c1)CN(Cc1ccccc1)[C@H](C(=O)O)C2 [Example 59, 2-Benzyl-7-[2-(2-cyclopropyl-5-methyloxazol-4-yl)ethoxy]-1,2,3,4-tetrahydroisoquinoline-(3S)-carboxylic acid] | 13.7% | – | –
24 | O=C(O)[C@@H]1Cc2ccc(OCCc3cc4ccccc4o3)cc2CN1Cc1ccccc1 [Example 67, 7-[2-(Benzofran-2-yl)ethoxy]-2-benzyl-1,2,3,4-tetrahydroisoquinoline-(3S)-carboxylic acid] | – | 10.6% | –
25 | COC(=O)CCC(=O)N1Cc2cc(OCCc3nc(-c4ccccc4)oc3C)ccc2C[C@H]1C(=O)O [Example 70, 2-[3-(Methoxycarbonyl)propionyl]-7-[2-(5-methyl-2-phenyloxazol-4-yl)ethoxy]-1,2,3,4-tetrahydroisoquinoline-(3S)-carboxylic acid] | – | 15.2% | –
26 | CCOC(=O)CCCN1Cc2cc(OCCc3nc(-c4ccccc4)oc3C)ccc2C[C@H]1C(=O)O [Example 71, 2-[3-(Ethoxycarbonyl)propyl]-7-[2-(5-methyl-2-phenyloxazol-4-yl)ethoxy]-1,2,3,4-tetrahydroisoquinoline-(3S)-carboxylic acid] | – | 10.5% | –
